From patent publication US20210121518A1, “HER2-TARGETED PEPTIDOMIMETICS GRAFTED ONTO MULTICYCLIC PEPTIDE SCAFFOLDS AND METHODS AND USES” (Board of Supervisors for the University of Louisiana System, priority 2018, published 2021) come the findings set out here.

Where “and” joins values, the source holds several entries; their conditions need not be identical. Equal entries are not always repeated. Entries after “also recorded” stand apart in the source; their conditions may differ. Numbered stars: 1 amine (or outer) side, 2 acyl side, 3 side chain; on linkers, the order of the positions; unused ones are H or OH. Bridge positions count the residues as written; N and C are the ends. Square brackets hold non-standard residues; d marks the D form. Peptide text beside a SMILES is read from it. βAla(3R-(1-naphthyl)) = O=C(C[C@@H](N[*:1])c1cccc2ccccc12)[*:2]; βAla(3S-(1-naphthyl)) = O=C(C[C@H](N[*:1])c1cccc2ccccc12)[*:2] A value given as a limit tells only on which side of the number the result lay.

The conditions of series [1]: for appearance in water (turbidity): 0.5 mg in 1 mL water, compared to blank. As for the experimental part: 0.5 mg of each compound was added to water in 1 mL. […] If a compound is highly soluble in water, it may not pass through intestinal barrier. Compound should be slightly lipophilic to pass through intestinal barrier.
The target in series [2] is HER2 protein extracellular domain (ECD) (Homo sapiens, UniProt P04626). Description: SPR binding to HER2 extracellular domain. The conditions noted are these: SPR sensorgram. An excerpt:
Surface plasmon resonance (SPR) analysis of binding of grafted peptide with HER2 ECD protein at different concentrations. […] SPR analysis of binding of grafted peptide with HER2 ECD domain IV protein at different concentrations.
To evaluate the binding of the grafted peptide to HER2 protein ECD, surface plasmon resonance (SPR) analysis was used.

The test system of series [3] is BT-474 cell lines that overexpress HER2. The series is described as follows: Synergy with TKI (isobologram) in BT-474. The format is cell-based.
Series [4] is described as follows: Thermal stability by MALDI-TOF mass spectrometry. Format: physicochemical. The conditions noted are these: 25° C., 50° C., 80° C., MALDI-TOF-MS. The procedure: FIGS. 12A-12C are three charts showing thermal stability of the disclosed H2TPFGGoCSs using mass spectrometry.
(§1) However, CD spectra of peptides provide the information about the overall average conformation of the peptide in solution. To verify that the peptide was stable even at high temperature, the samples of peptide that were heated to 80 C was analyzed by mass spectrometry. […] The CD spectra of compound 18 was also verified using mass spectrometry analysis (FIG. 22).

The test system of series [5] is phosphorylation of HER2 kinase. The series is described as follows: Western blot of HER2 phosphorylation in A549 cells. The format is cell-based. To be noted: 1 μM, incubation 40 h. As for the experimental part: Lapatinib (2 μM) was used as positive control. Incubation 40 h. *p<0.05 **P<0.01.
Lapatinib, a known inhibitor of HER2, was used as a positive control.

A short description of series [6]: Thermal stability by CD spectroscopy. The format is physicochemical. To be noted: temperature changed from 25 to 80° C. (85 C). The procedure:
Overall conformation of the peptide remained the same at all temperatures studied.
as §1

For series [7], the system named is EGFR mutated NSCLC cell line NCI-H1975. Description: Synergy with TKI (isobologram) in NCI-H1975. Format: cell-based.
The subject of another series is trypsin. The series is described as follows: Stability in trypsin (HPLC). The conditions noted are these: pH 7.4, 37° C, 24 hours. Format: in vitro ADME. As for the experimental part: The trypsin inhibition assay was performed with a modified Erlanger's method. […] Samples at different incubation times were analyzed by HPLC.
In series [8] the test system is NCI-H1975 (EGFR L858R/T790M double mutation). To be noted: read-out: antiproliferative activity IC50. As for the experimental part: (§2) X=Anapa, amino naphthyl propionic acid, specifically, 3-amino 3(1-napthyl) propionic acid. Single letter amino acid code was used for peptide sequence. Small letters refer to D amino acids and capital letters refer to L amino acids. Chirality of Anapa was indicated with R and S configuration in italics. Antiproliferative activity of peptides in cancer cell lines are given as IC50 μM. Disulfide bond between the cysteines is shown in underline.
The inventor therefor designed compounds to bind to the extracellular domain and inhibit the downstream signaling. NCI-H1975 is a cell line that harbors the EGFR L858R/T790M double mutation.

The subject of series [9] is A549 Red-FLuc NSCLC cells. The series is described as follows: A549 Red-FLuc lung cancer model in athymic nude mice. The conditions noted are these: 6 mg/kg IV twice a week. The format is in vivo, mice (Foxn1-nude). As for the experimental part: A549 cells with luciferase were injected to induce lung cancer in mice (Foxn1-nude). One week after injection of cells, mice were monitored for lung cancer development using luciferin imaging. Peptide was administered via IV twice a week after 2 weeks of cell injections. Representative images: In the control group (row 1) lung cancer tumor growth increased in 5 weeks.
FIG. 17 is a chart showing relative luminescence intensity (total photon flux/sec) plotted for 3 animals and a control.
FIG. 18A is a plot of relative luminescence intensity (total photon flux/sec) plotted for 4 animals and controls from the lung cancer study, *p<0.05, and FIG. 18B is a plot displaying bodyweight change of mice during the study.
Athymic nude mice (Foxn1-nude, 6-7 weeks old) were purchased from Harlan laboratories. Mice were acclimatized for one week in the vivarium. 4.5×10^6 A549 Red-FLuc NSCLC cells in 150 μL PBS were injected into each mouse via tail vein (IV). Total of four mice were injected with cells. Mice were monitored for 2 weeks. After 1 week, mice were injected with luciferin (200 μL in PBS, IP injection) and imaged under anesthesia using IVIS (Perkin Elmer) instrument. Bioluminescence was measured from each animal. One animal was used as a control. Peptide treatment started after 2 weeks from injection of cells and peptide was prepared in PBS and administered via i.v. with a dose of 6 mg/kg in 100 μL twice a week. Animals were imaged once a week to monitor the progression of lung cancer. Images were quantified using Living Image Software (Perkin Elmer). Bioluminescence signal for each mouse was expressed as total flux of photons/sec. Region of interest tool was used to measure the total photon flux/sec. A graph of bioluminescence for each mouse was plotted with respect to time (each week). After five weeks mice were terminated, and tumor sections and lungs were removed by surgical procedure. Tumor sections were fixed, embedded in […], and cut into 5 μm slices. […] Images were viewed under a fluorescence microscope (Olympus BX63 microscope) at 40× magnification. […]

Series [10] relates to normal breast epithelial cell line MCF-10A. The conditions noted are these: for IC50: read-out: antiproliferative activity IC50, MCF-10A. The procedure: as §2
Design of grafted peptides: Peptidomimetics were designed to bind to HER2 protein domain IV and inhibit PPI of HER2:HER3 and EGFR:HER2.

Series [11] concerns Calu-3 lung cancer cell lines that overexpresses HER2. Description: Synergy with TKI (isobologram) in Calu-3. The format is cell-based.
Series [12] in a line: Stability in human serum (in vitro, HPLC). The format is in vitro ADME. An excerpt: At different time points, aliquots of sample were taken and subjected to extraction of compound using cold acetonitrile. Samples were freeze dried and quantified by HPLC method. […] Nearly 60% of sample is intact peptide.
Series [13] relates to HER2-overexpressing lung cancer Calu-3 cell lines. The conditions noted are these: read-out: antiproliferative activity IC50. As for the experimental part: as §2
Series [14] has as its system HER2 overexpressing BT-474 breast cancer cell lines. The conditions noted are these: read-out: antiproliferative activity IC50. As for the experimental part:
as §2

The subject of series [15] is MCF-7 cell lines that do not overexpress the HER2 protein. The procedure:
as §2

Series [16] concerns the target T1, human serum albumin (HSA) (human, UniProt P02768 25-609).
T1 construct: also called HSA protein
Description: SPR.

T1 sequence (P02768 25-609 limits assumed): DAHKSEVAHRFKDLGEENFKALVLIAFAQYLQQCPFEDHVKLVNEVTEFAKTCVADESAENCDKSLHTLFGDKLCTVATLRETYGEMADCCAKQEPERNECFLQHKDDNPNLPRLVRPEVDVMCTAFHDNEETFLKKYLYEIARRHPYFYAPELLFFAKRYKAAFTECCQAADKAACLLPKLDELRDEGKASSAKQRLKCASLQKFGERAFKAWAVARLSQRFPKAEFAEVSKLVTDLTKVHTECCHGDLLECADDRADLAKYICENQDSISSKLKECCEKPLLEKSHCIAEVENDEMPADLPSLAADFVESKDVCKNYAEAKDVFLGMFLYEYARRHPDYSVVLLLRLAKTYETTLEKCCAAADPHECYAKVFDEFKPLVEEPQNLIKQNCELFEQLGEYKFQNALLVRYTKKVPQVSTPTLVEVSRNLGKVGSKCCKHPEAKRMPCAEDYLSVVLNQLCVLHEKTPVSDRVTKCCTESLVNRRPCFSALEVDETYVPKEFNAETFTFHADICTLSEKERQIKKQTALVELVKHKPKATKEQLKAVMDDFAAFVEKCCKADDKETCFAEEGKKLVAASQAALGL

As for “Cyclo(C(S-X)RIHyPHyPR(S-X)CFPDDF) [SFTI-G7]”, the “appearance in water (turbidity)” value in series [1] is recorded as “slightly turbid”.

With “H2N—K(3-aminobiphenyl propionic acid)F—OH [control peptide]”, the “binding to HER2 protein (in words)” value in [2] is on record as “does not bind to HER2 protein; also recorded: no binding was observed”.

The IC50 is the concentration at which inhibition is half-maximal. Regarding `CC[C@H](C)[C@@H]1NC(=O)[C@H](CCCNC(=N)N)NC(=O)C[C@@H](c2cccc3ccccc23)NC(=O)[C@@H]2CSSC[C@H](NC(=O)C[C@@H](c3cccc4ccccc34)NC(=O)[C@H](CCCNC(=N)N)NC(=O)[C@@H]3CCCN3C(=O)[C@@H]3CCCN3C1=O)C(=O)N[C@@H](Cc1ccccc1)C(=O)N1CCC[C@H]1C(=O)N[C@@H](CC(=O)O)C(=O)N[C@@H](CC(=O)O)C(=O)N[C@@H](Cc1ccccc1)C(=O)N2` [SFTI-G5, Cyclo(C(S-X)RIPPR(S-X)CFPDDF)], the “synergistic effect with erlotinib (isobologram)” value is reported as “synergistic” in series [3] (BT-474, combination with erlotinib); “synergistic” in [7] (NCI-H1975, combination with erlotinib); “synergistic” in series [11] (Calu-3, combination with erlotinib). Also, the “synergistic effect with lapatinib (isobologram)” value is on record as “synergistic” in series [3] (BT-474, combination with lapatinib); “synergistic” in series [7] (NCI-H1975, combination with lapatinib); “synergistic” in series [11] (Calu-3, combination with lapatinib). For the same molecule, the “thermal stability, mass spectrometry” value in series [4] is reported as “stable up to 80 C; also recorded: thermally stable”. The “inhibition of HER2 phosphorylation” value in series [5] is reported as “inhibits phosphorylation of HER2 kinase; also recorded: reduces HER2 phosphorylation”. The “thermal stability, CD spectra” value in [6] is “stable from 25 C to 85 C; also recorded: more stable than compound 18; also recorded: no significance difference in the CD spectra”. For the same molecule, the stability in trypsin entry with trypsin is “stable in trypsin assay”. In addition, the IC50 in [8] was 4.22 µM; in series [10], 40 µM; in [13], 0.073 µM; in [14], 0.28 µM; in series [15] (read-out: antiproliferative activity IC50, MCF-7) it was 25 µM. Also, the “histological analysis of lung tissue” value in [9] was “reduced pathological features associated with tumor development”. Further, the “tumor growth (bioluminescence, total photon flux/sec)” value in series [9] (weeks 4 and 5, vs control) is given as “reduced growth of tumors; also recorded: tumor growth was reduced compared to the control group; also recorded: reduction in the luminescence intensity of tumors”. Further, in [9] (during the study), the “body weight change of mice” value was “No changes in body weight were observed”. For the same molecule, the “antiproliferative activity, times less in noncancerous breast cell lines compared to Calu-3” value in [10] (MCF-10A vs Calu-3) was “more than 500 times”. Besides, the “appearance in water (turbidity)” value in series [1] is “slightly turbid”. In [12] (2 mg/mL in human serum, HPLC), the “time of stability in human serum” value is recorded as “up to 50 h”. For the same molecule, the remaining at 50 h, 2 mg/mL in series [12] (human, human serum, up to 50 h, read-out: intact peptide in human serum) was around 60%. Moreover, the “antiproliferative activity, times less against HER2-ve cell lines” value in series [15] (as printed: less than its activity against HER2-ve cell lines) was around 300 times.

Usually solubility stands for the concentration that dissolves in the medium under given conditions. A high value points to a readily soluble substance. Take `N=C(N)NCCC[C@@H]1NC(=O)[C@H]2CCCN2C(=O)[C@@H]2CCCN2C(=O)[C@H](CCCNC(=N)N)NC(=O)C[C@H](c2cccc3ccccc23)NC(=O)[C@H](Cc2ccccc2)NC(=O)[C@H](CC(=O)O)NC(=O)[C@H](CC(=O)O)NC(=O)[C@H](Cc2ccccc2)NC(=O)C[C@H](c2cccc3ccccc23)NC1=O` [compound 18, reference compound] (cyclo(P[dP]R[βAla(3R-(1-naphthyl))]FDDF[βAla(3R-(1-naphthyl))]R)): the IC50 in [10] was determined as 40 µM. This molecule also yielded a solubility in series [1] below 500 µg/mL.

B1: SFTI-G5 (peptide)
peptide: cyclo(C[βAla(3S-(1-naphthyl))]RIPPR[βAla(3S-(1-naphthyl))]CFPDDF)
modifications: disulfide 1-9
notes: also called grafted peptide; grafted SFTI peptide
One may read the Kd as the concentration at which binding is half-saturated. Read a high Kd as weaker binding. With B1, the Kd in series [16] is 56.9 µM and 56 µM.
